Results from patent publication US9028858B2 (Coloplast A/S, priority 2003, dated 2015).
Where two headings read alike, the source gives them in different places.

Tested on: 7 different bacterial strains
Conditions: mid-log phase, absorbance at 600 nm, 7 strains pooled
From the text: The obtained data from each specific bacterial strain were pooled.

## OO [Std H2O2, hydrogen peroxide]
0.00000256% hydrogen peroxide
  bacterial growth, Mean (% of control): 110.0 % of control
0.0000128% hydrogen peroxide
  bacterial growth, Mean (% of control): 99.8 % of control
0.000064% hydrogen peroxide
  bacterial growth, Mean (% of control): 97.9 % of control
0.000320% hydrogen peroxide
  bacterial growth, Mean (% of control): 96.2 % of control
0.0016% hydrogen peroxide
  bacterial growth, Mean (% of control): 87.3 % of control
0.008% hydrogen peroxide
  bacterial growth, Mean (% of control): 63.0 % of control
0.04% hydrogen peroxide
  bacterial growth, Mean (% of control): 35.6 % of control
0.2% hydrogen peroxide
  bacterial growth, Mean (% of control): 16.0 % of control
1.0% hydrogen peroxide
  bacterial growth, Mean (% of control): 11.7 % of control
